In US20230286948A1 (HUYABIO International, LLC, priority 2022, published 2023):
Values belong to the compound of their own block, whether it stands above or below them.

Legend:
[1] = test system: MV-411 cells; assay: Anti-proliferative activity against MV-411 leukemia cells (CellTiterGlo viability, 72 h); format: cell-based; details: Homo sapiens, MV4-11, 72 h, MV-411 human acute monocytic leukemia cells, a second value in parentheses is a further determination
Procedure: Procedure: MV-411 cells were seeded into 384 well plates at 2000 cells/well density in 50 μL total volume, according to plate map and were allowed to naturally sediment by waiting about 30 min on a Clean Bench. Next, plated cells were centrifuged for 1 min at 1000 rpm and the excess cells were transferred into the flasks for further culture. Cells in the assay plates were incubated (at least 4 hrs.) at 37° C., 5% CO2 followed by adding the compounds as the plate map indicated. The tests were performed in duplicates with treatment of compounds at 10 pts 3-fold titration in 384 well plates. Taxol was used as positive control while DMSO as negative control. To rule out edge effect, the wells on the edge were not seeded and therefore one 384 well plate holds 13 compounds. Cells viability was measured 72h after incubation with compounds using CellTiterGlo (promega) viability assay according to manufacturer's instruction to check the ATP production in each well.
Experiments on anti-proliferative activity against leukemia cells were conducted with some of the compounds of the invention.

[2] = molecular target: hERG (Homo sapiens (Human), UniProt Q12809); assay: hERG radioligand binding assay; details: for inhibition at 1 h, 10000 nM: human, hERG membrane stocks (membrane preparation), probe 3H radio ligand (not named), max dose 10,000 nM, read-out: % Inh at Max dose
Procedure: Procedure: Compounds were prepared and diluted with DMSO to make 0.2 mM and 0.02 mM solution. Reference compound was diluted with DMSO to make 8-point 4-fold serial dilution, starting at 0.2 mM. One μl of compounds/high control/low control was transferred to the assay plate according to the plate map. Next, and by following the plate map, 100 μl of membrane stocks was dispensed into the plate followed by adding 100 μl of radio ligand. Plates were then sealed and were incubated at RT for 1 hours. In the meantime, the Unifilter-96 GF/C filter plates were soaked with 50 μL of 0.5% BSA per well for at least 0.5 hour at room temperature. When binding assays were completed, the reaction mixture was filtered through GF/C plates using Perkin Elmer Filtermate Harvester, and then each plate was washed for 4 times with cold wash buffer. Next, the filter plates were dried for 1 hr at 50 degrees and the bottom of the filter plate wells were sealed using Perkin Elmer Unifilter-96 backing seal tape. Next, 50 μl of Perkin Elmer Microscint 20 cocktail was added. The top of the filter plate was sealed with Perkin Elmer TopSeal-A sealing film. Using Perkin Elmer MicroBeta2 Reader count 3H trapped on filter. Finally, the data was analyzed with GraphPad Prism 5. The “Inhibition [% Control]” was calculated using the equation: % Inh=(1-Background subtracted Assay value/Background subtracted HC value)*100.

[3] = Solubility remark in Table 4; format: physicochemical; details: remark beside the GI50 value
[4] = molecular target: MLL1-WDR5 protein-protein interaction (Homo sapiens (Human), UniProt P61964); assay: WDR5 TR-FRET assay (MLL1-WDR5 PPI inhibition); format: binding; details: 5 nM WDR5 protein, 10 nM peptide, read-out: IC50 (nM), MLL1-WDR5 PPI inhibitory activity
Procedure: WDR5 TR-FRET Assay Procedure: Stock compounds were transferred to the assay plate by Echo Liquid Handler. […] Stock compounds were incubated with WDR5 protein for 30 min at room temperature. Plates were covered, protected from light and incubated for 60 min at room temperature, after adding the peptide and Tb-Ab. EnVision Multimode Plate Reader (PerkinElmer) was used for the TR-FRET assay with excitation wavelength at 340 nm and emission wavelength at 495 and 520 nm. The ratio of the 520/495 wavelengths were used to assess the degree of the FRET signal. IC50 was calculated by fitting the inhibition data using XLfit software to sigmoidal dose-response model.

Chain of hERG (Q12809 whole entry): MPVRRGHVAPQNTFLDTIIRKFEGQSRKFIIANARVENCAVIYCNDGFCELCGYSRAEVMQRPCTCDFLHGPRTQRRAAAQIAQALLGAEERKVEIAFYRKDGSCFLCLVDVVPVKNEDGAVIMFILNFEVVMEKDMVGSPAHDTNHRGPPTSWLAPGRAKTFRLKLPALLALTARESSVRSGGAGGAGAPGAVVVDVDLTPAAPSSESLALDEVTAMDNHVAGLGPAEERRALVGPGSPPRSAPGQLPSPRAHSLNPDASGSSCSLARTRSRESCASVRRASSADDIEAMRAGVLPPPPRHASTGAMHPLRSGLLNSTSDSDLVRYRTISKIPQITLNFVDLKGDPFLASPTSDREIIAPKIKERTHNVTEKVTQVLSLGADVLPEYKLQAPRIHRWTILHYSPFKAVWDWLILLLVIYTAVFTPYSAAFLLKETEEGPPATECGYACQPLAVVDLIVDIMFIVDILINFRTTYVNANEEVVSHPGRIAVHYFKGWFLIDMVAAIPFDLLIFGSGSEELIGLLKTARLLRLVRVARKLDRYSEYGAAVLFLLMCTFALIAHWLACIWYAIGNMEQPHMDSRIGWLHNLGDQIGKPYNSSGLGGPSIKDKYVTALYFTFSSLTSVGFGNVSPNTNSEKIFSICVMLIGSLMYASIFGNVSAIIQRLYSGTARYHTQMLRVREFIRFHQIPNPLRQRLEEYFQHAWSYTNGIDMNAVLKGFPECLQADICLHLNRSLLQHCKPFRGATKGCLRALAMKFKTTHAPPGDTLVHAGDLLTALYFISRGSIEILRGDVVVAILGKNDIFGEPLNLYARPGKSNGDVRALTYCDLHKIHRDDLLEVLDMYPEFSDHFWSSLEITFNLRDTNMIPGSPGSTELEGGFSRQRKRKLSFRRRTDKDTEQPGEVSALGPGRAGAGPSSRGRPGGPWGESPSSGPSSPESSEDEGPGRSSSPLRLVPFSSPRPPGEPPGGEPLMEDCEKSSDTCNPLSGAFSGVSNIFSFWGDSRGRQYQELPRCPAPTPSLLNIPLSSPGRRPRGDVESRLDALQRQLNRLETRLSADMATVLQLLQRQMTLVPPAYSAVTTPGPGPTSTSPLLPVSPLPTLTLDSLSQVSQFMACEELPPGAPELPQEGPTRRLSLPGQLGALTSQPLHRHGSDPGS

Structure (SMILES): CN1CCN(c2ccc(-n3cc(C(=O)NCCCN4CCOCC4)nn3)cc2NC(=O)c2cnc(Cl)cc2C(F)(F)F)CC1 [Compound 3]
GI50 [1]: 0.298 µM
IC50 [2]: > 10 µM
inhibition at 1 h, 10000 nM [2]: 3.31%

Structure (SMILES): CN1CCN(c2cc(F)c(-n3cc(C(=O)NCCCN4CCOCC4)nn3)cc2NC(=O)c2cnc(Cl)cc2C(F)(F)F)CC1 [Compound 7]
GI50 [1]: 0.4 µM
IC50 [2]: > 10 µM
inhibition at 1 h, 10000 nM [2]: 11.8%

GI50 [1]: 0.241 µM
Structure (SMILES): C[C@H]1CN(c2ccc(-n3cc(C(=O)NCCCN4CCOCC4)nn3)cc2NC(=O)c2cnc(Cl)cc2C(F)(F)F)CCN1C [Compound 9]
IC50 [2]: > 10 µM
inhibition at 1 h, 10000 nM [2]: 6.39%

solubility (remark) [3]: (poor solubility)
GI50 [1]: > 204 µM
Structure (SMILES): Cc1c(Cl)ncc(C(=O)Nc2cc(-n3cc(C(=O)NCCCN4CCOCC4)nn3)c(F)cc2N2CCN(C)[C@H](C)C2)c1Cl [Compound 59]

Structure (SMILES): CN(CCOc1ccc(NS(C)(=O)=O)cc1)CCc1ccc(NS(C)(=O)=O)cc1 [Dofetilide]
inhibition at 1 h, 10000 nM [2]: 99.9%

Structure (SMILES): C[C@@H]1CN(c2cc(F)c(-n3cc(C(=O)NC4CCN(C)CC4)nn3)cc2NC(=O)c2cnc(Cl)cc2C(F)(F)F)C[C@H](C)N1C [Example 52, 6-chloro-N-(4-fluoro-5-(4-((1-methylpiperidin-4-yl)carbamoyl)-1H-1,2,3-triazol-1-yl)-2-((3S,5R)-3,4,5-trimethylpiperazin-1-yl)phenyl)-4-(trifluoromethyl)nicotinamide]
IC50 [4]: 287 nM

IC50 [4]: 535 nM
Structure (SMILES): CCN(CC)C(=O)c1cn(-c2cc(NC(=O)c3cnc(F)cc3C(F)(F)F)c(N3C[C@@H](C)N(C)[C@@H](C)C3)cc2F)nn1 [Example 53, N-(5-(4-(diethylcarbamoyl)-1H-1,2,3-triazol-1-yl)-4-fluoro-2-((3S,5R)-3,4,5-trimethylpiperazin-1-yl)phenyl)-6-fluoro-4-(trifluoromethyl)nicotinamide]

Structure (SMILES): COc1cc(C(F)(F)F)c(C(=O)Nc2cc(-n3cc(C(=O)NC4CCN(C)CC4)nn3)c(F)cc2N2C[C@@H](C)N(C)[C@@H](C)C2)cn1 [Example 54, N-(4-fluoro-5-(4-((1-methylpiperidin-4-yl)carbamoyl)-1H-1,2,3-triazol-1-yl)-2-((3S,5R)-3,4,5-trimethylpiperazin-1-yl)phenyl)-6-methoxy-4-(trifluoromethyl)nicotinamide]
IC50 [4]: 618 nM

IC50 [4]: 2820 nM
Structure (SMILES): COc1cc(C(F)(F)F)c(C(=O)Nc2cc(-n3cc(C(=O)NCCCN4CCOCC4)nn3)c(F)cc2N2C[C@@H](C)N(C)[C@@H](C)C2)cn1 [Example 55]

Structure (SMILES): CCN(CC)C(=O)c1cn(-c2cc(NC(=O)c3cnc(Cl)cc3Cl)c(N3C[C@@H](C)N(C)[C@@H](C)C3)cc2F)nn1 [Example 56, 4,6-dichloro-N-[5-[4-(diethylcarbamoyl)triazol-1-yl]-4-fluoro-2-[(3R,5S)-3,4,5-trimethylpiperazin-1-yl]phenyl]pyridine-3-carboxamide]
IC50 [4]: 1160 nM

Structure (SMILES): C[C@@H]1CN(c2cc(F)c(-n3cc(C(=O)N4CCN(C)CC4)nn3)cc2NC(=O)c2cnc(Cl)cc2Cl)C[C@H](C)N1C [Example 57, 4,6-dichloro-N-(4-fluoro-5-(4-(4-methylpiperazine-1-carbonyl)-1H-1,2,3-triazol-1-yl)-2-((3S,5R)-3,4,5-trimethylpiperazin-1-yl)phenyl)nicotinamide]
IC50 [4]: 2170 nM

Structure (SMILES): C[C@@H]1CN(c2cc(F)c(-n3cc(C(=O)NC4CCN(C)CC4)nn3)cc2NC(=O)c2cnc(C(F)(F)F)cc2Cl)C[C@H](C)N1C [Example 58, 4-chloro-N-(4-fluoro-5-(4-((1-methylpiperidin-4-yl)carbamoyl)-1H-1,2,3-triazol-1-yl)-2-((3S,5R)-3,4,5-trimethylpiperazin-1-yl)phenyl)-6-(trifluoromethyl)nicotinamide]
IC50 [4]: > 10000 nM

Structure (SMILES): Cc1c(Cl)ncc(C(=O)Nc2cc(-n3cc(C(=O)NCCCN4CCOCC4)nn3)c(F)cc2N2C[C@@H](C)N(C)[C@@H](C)C2)c1Cl [Example 59, 4,6-dichloro-N-[4-fluoro-5-[4-(3-morpholinopropylcarbamoyl)triazol-1-yl]-2-[(3R,5S)-3,4,5-trimethylpiperazin-1-yl]phenyl]-5-methyl-pyridine-3-carboxamide]
IC50 [4]: > 10000 nM

Structure (SMILES): CN1CCN(c2ccc(-n3cc(C(=O)NCCCN4CCOCC4)nn3)cc2NC(=O)c2ncc(N)cn2)CC1 [HYBI-267, 5-amino-N-(2-(4-methylpiperazin-1-yl)-5-(4-((3-morpholinopropyl)carbamoyl)-1H-1,2,3-triazol-1-yl)phenyl)pyrimidine-2-carboxamide]
IC50 [4]: > 10000 nM

Structure (SMILES): C[C@H]1CN(c2cc(F)c(-n3cc(C(=O)N4CCN(C)CC4)nn3)cc2NC(=O)c2cnc(Cl)cc2C(F)(F)F)C[C@H](C)N1C [HYBI-284]
IC50 [4]: 1270 nM
